Assay results as given in patent US9084424B2, “N-benzyl heterocyclic carboxamides” (BAYER INTELLECTUAL PROPERTY GMBH, priority 2010, dated 2015).

Experiments:
[1] = log P by HPLC on reversed-phase column (EEC Directive 79/831 Annex V.A8); assay type: physicochemical; details: 0.1% aqueous formic acid and acetonitrile, linear gradient 10% to 90% acetonitrile
Method: In table 1, the log P values were determined in accordance with EEC Directive 79/831 Annex V.A8 by HPLC (High Performance Liquid Chromatography) on a reversed-phase column (C 18), using the method described below: Temperature: 40° C.; Mobile phases: 0.1% aqueous formic acid and acetonitrile; linear gradient from 10% acetonitrile to 90% acetonitrile. Calibration was carried out using unbranched alkan-2-ones (comprising 3 to 16 carbon atoms) with known log P values (determination of the log P values by the retention times using linear interpolation between two successive alkanones). lambda-max-values were determined using UV-spectra from 200 nm to 400 nm and the peak values of the chromatographic signals.

Pyrenophora teres = assay: In vivo preventive test on Pyrenophora teres (barley); details: preventive spray, 500 ppm of active ingredient, evaluated 7-9 days after inoculation
Method: In Vivo Preventive Test on Pyrenophora teres (Barley)
Solvent: 49 parts by weight of N,N-dimethylacetamid
Emulsifier: 1 part by weight of alkylaryl polyglycol ether
To produce a suitable preparation of active compound, 1 part by weight of active compound is mixed with the stated amounts of solvent and emulsifier, and the concentrate is diluted with water to the desired concentration.
To test for preventive activity, young plants are sprayed with the preparation of active compound at the stated rate of application. One day after this treatment, the plants are inoculated with an aqueous spore suspension of Pyrenophora teres. The plants remain for 48 hours in an incubation cabinet at 22° C. and a relative atmospheric humidity of 100%. Then the plants are placed in a greenhouse at a temperature of approximately 20° C. and a relative atmospheric humidity of approximately 80%.
The test is evaluated 7-9 days after the inoculation. 0% means an efficacy which corresponds to that of the untreated control while an efficacy of 100% means that no disease is observed.

[2] = HPLC, reversed-phase C 18, 40° C.
[3] = HPLC on reversed-phase column (C 18), 40° C.

logP [1, 2]	logP [1, 3]	SMILES	Efficacy (Pyrenophora teres) [%]
2.07		Cn1nc(C(F)F)c(C(=O)NC(C#N)c2ccccc2)c1F (racemic) [Example 3]	
2.20		Cn1nc(C(F)F)c(C(=O)NC(C#N)c2ccccc2)c1Cl (racemic) [Example 4]	
2.31		Cn1nc(C(F)F)c(C(=O)NC(C#N)c2cc(F)ccc2F)c1Cl (racemic) [Example 7]	
2.01		Cn1nc(C(F)F)c(C(=O)NC(C#N)c2cc(F)ccc2F)c1F (racemic) [Example 8]	
	3.58	CC(NC(=O)c1c(C(F)F)nn(C)c1Cl)c1ccc(OCc2ccccc2)cc1 (racemic) [Example 159]	95
3.02		Cc1cccc(C)c1CN(C)C(=O)c1c(C(F)F)nn(C)c1Cl [Example 5]	89
2.84		Cc1cccc(C)c1CN(C)C(=O)c1c(C(F)F)nn(C)c1F [Example 6]	78
4.19		Cn1nc(C(F)F)c(C(=O)NC(C)(C)c2c(F)cccc2F)c1F [Example 9]	
3.89		Cn1nc(C(F)F)c(C(=O)NC(C)(C)c2c(F)cccc2F)c1Cl [Example 10]	
2.68		CCc1ccccc1CN(CC#N)C(=O)c1c(C(F)F)nn(C)c1F [Example 11]	
3.39		CCc1ccccc1CN(C(=O)c1c(C(F)F)nn(C)c1F)C(C)C [Example 14]	
2.69		Cn1nc(C(F)F)c(C(=O)NCc2ccccc2Cl)c1Cl [Example 21]	
2.50		Cn1nc(C(F)F)c(C(=O)NCc2ccccc2Cl)c1F [Example 25]	
4.19		Cn1nc(C(F)F)c(C(=O)NCc2ccc(Cl)cc2Cl)c1Cl [Example 34]	
3.37		CN(Cc1ccc(Cl)cc1Cl)C(=O)c1c(C(F)F)nn(C)c1Cl [Example 42]	
3.19		CN(Cc1ccc(Cl)cc1Cl)C(=O)c1c(C(F)F)nn(C)c1F [Example 43]	100
4.39		Cn1nc(C(F)F)c(C(=O)NCc2cc(Cl)ccc2Cl)c1Cl [Example 47]	
4.19		Cn1nc(C(F)F)c(C(=O)NC2(c3cc(Cl)ccc3Cl)CC2)c1Cl [Example 48]	
3.23		CN(Cc1cc(Cl)ccc1Cl)C(=O)c1c(C(F)F)nn(C)c1Cl [Example 57]	
3.02		CN(Cc1cc(Cl)ccc1Cl)C(=O)c1c(C(F)F)nn(C)c1F [Example 58]	
3.89		Cn1nc(C(F)F)c(C(=O)NCc2c(Cl)cccc2Cl)c1Cl [Example 59]	
4.39		Cn1nc(C(F)F)c(C(=O)NCc2c(Cl)cccc2Cl)c1F [Example 60]	
3.02		CN(Cc1c(Cl)cccc1Cl)C(=O)c1c(C(F)F)nn(C)c1Cl [Example 61]	100
2.82		CN(Cc1c(Cl)cccc1Cl)C(=O)c1c(C(F)F)nn(C)c1F [Example 62]	100
3.25		CC(c1c(Cl)cccc1Cl)N(C)C(=O)c1c(C(F)F)nn(C)c1Cl (stereo not drawn) [Example 63]	

logP [1, 2]	logP [1, 3]	SMILES	Efficacy (Pyrenophora teres) [%]
3.13		CC(c1c(Cl)cccc1Cl)N(C)C(=O)c1c(C(F)F)nn(C)c1F (stereo not drawn) [Example 64]	95
2.98		Cn1nc(C(F)F)c(C(=O)NCc2ccccc2C2CC2)c1Cl [Example 66]	
2.94		CC(C)c1ccccc1CN(CC#N)C(=O)c1c(C(F)F)nn(C)c1F [Example 67]	90
3.70		CC(C)c1ccccc1CN(C(=O)c1c(C(F)F)nn(C)c1F)C(C)C [Example 69]	
3.51		CON(Cc1ccccc1C(C)C)C(=O)c1c(C(F)F)nn(C)c1Cl [Example 77]	
3.81		CC(C)c1ccc(Cl)cc1CN(CC(F)F)C(=O)c1c(C(F)F)nn(C)c1F [Example 80]	100
4.08		Cn1nc(C(F)F)c(C(=O)N(Cc2cc(Cl)ccc2C(F)(F)F)C2CSC2)c1Cl [Example 86]	
3.92		Cn1nc(C(F)F)c(C(=O)N(Cc2cc(Cl)ccc2C(F)(F)F)C2CSC2)c1F [Example 87]	95
3.61		CC(C)N(Cc1c(Cl)cccc1C(F)(F)F)C(=O)c1c(C(F)F)nn(C)c1F [Example 92]	70
3.05		C#CCN(Cc1c(Cl)cccc1C(F)(F)F)C(=O)c1c(C(F)F)nn(C)c1F [Example 93]	95
3.37		C=CCN(Cc1c(Cl)cccc1C(F)(F)F)C(=O)c1c(C(F)F)nn(C)c1F [Example 94]	80
2.69		Cn1nc(C(F)F)c(C(=O)NCc2c(F)cccc2C(F)(F)F)c1F [Example 95]	
2.86		Cn1nc(C(F)F)c(C(=O)NCc2c(F)cccc2C(F)(F)F)c1Cl [Example 96]	
3.52		Cn1nc(C(F)F)c(C(=O)N(CC#N)Cc2ccccc2[Si](C)(C)C)c1F [Example 97]	
4.37		CC(C)N(Cc1ccccc1[Si](C)(C)C)C(=O)c1c(C(F)F)nn(C)c1F [Example 102]	
2.90		CN(Cc1ccccc1Br)C(=O)c1c(C(F)F)nn(C)c1Cl [Example 104]	78
	3.80	Cn1nc(C(F)F)c(C(=O)NC2(c3cccc(C(F)(F)F)c3)CCCC2)c1Cl [Example 109]	
	3.44	Cn1nc(C(F)F)c(C(=O)NCc2ccc3c(c2)CCCC3)c1Cl [Example 111]	
	3.59	Cn1nc(C(F)F)c(C(=O)NC(C)(C)c2cc(Cl)cc(Cl)c2)c1F [Example 114]	
	1.79	COc1ccc(CNC(=O)c2c(C(F)F)nn(C)c2F)cc1OC [Example 119]	
	1.36	COc1ccc(CNC(=O)c2c(C(F)F)nn(C)c2Cl)cc1OC [Example 120]	
	3.87	Cn1nc(C(F)F)c(C(=O)NC2(c3ccc(C(F)(F)F)cc3)CCCC2)c1Cl [Example 122]	
	2.75	Cn1nc(C(F)F)c(C(=O)NCc2ccc(C(F)(F)F)cc2)c1F [Example 123]	
	2.90	Cn1nc(C(F)F)c(C(=O)NCc2ccc(C(F)(F)F)cc2)c1Cl [Example 124]	
	2.70	Cn1nc(C(F)F)c(C(=O)NCc2ccc(Cl)cc2)c1Cl [Example 128]	

logP [1, 2]	logP [1, 3]	SMILES	Efficacy (Pyrenophora teres) [%]
	4.34	CC(NC(=O)c1c(C(F)F)nn(C)c1F)c1ccc(C2CCCCC2)cc1 (stereo not drawn) [Example 129]	100
	3.59	CCOc1ccc(C2(NC(=O)c3c(C(F)F)nn(C)c3Cl)CCCC2)cc1 [Example 130]	
	3.44	CCOc1ccc(C2(NC(=O)c3c(C(F)F)nn(C)c3F)CCCC2)cc1 [Example 131]	94
	3.19	COc1ccc(C2(NC(=O)c3c(C(F)F)nn(C)c3Cl)CCCC2)cc1 [Example 132]	
	3.06	COc1ccc(C2(NC(=O)c3c(C(F)F)nn(C)c3F)CCCC2)cc1 [Example 133]	95
	2.08	COc1ccc(CNC(=O)c2c(C(F)F)nn(C)c2F)cc1 [Example 134]	
	3.46	Cn1nc(C(F)F)c(C(=O)NCc2ccccc2Oc2ccccc2)c1Cl [Example 143]	
	3.46	Cn1nc(C(F)F)c(C(=O)NCc2cccc(Oc3ccccc3)c2)c1Cl [Example 146]	
	3.37	Cn1nc(C(F)F)c(C(=O)NCc2ccc(Oc3ccccc3)cc2)c1Cl [Example 151]	
	3.48	CN(Cc1ccc(Oc2ccccc2)cc1)C(=O)c1c(C(F)F)nn(C)c1Cl [Example 155]	
	3.37	Cn1nc(C(F)F)c(C(=O)NCc2ccc(OCc3ccccc3)cc2)c1Cl [Example 160]	
	3.21	Cn1nc(C(F)F)c(C(=O)NCc2ccccc2-c2ccccc2)c1F [Example 163]	
	3.39	Cn1nc(C(F)F)c(C(=O)NCc2ccccc2-c2ccccc2)c1Cl [Example 164]	
	3.33	Cn1nc(C(F)F)c(C(=O)NCc2cccc(-c3ccccc3)c2)c1Cl [Example 165]	
	3.35	Cn1nc(C(F)F)c(C(=O)NCc2ccc(-c3ccccc3)cc2)c1Cl [Example 168]	
	1.30	Cn1nc(C(F)F)c(C(=O)NC2(c3ccccn3)CCCC2)c1Cl [Example 171]	
	1.13	Cn1nc(C(F)F)c(C(=O)NC2(c3ccccn3)CCCC2)c1F [Example 172]	
	2.01	CN(Cc1cc(Cl)ccn1)C(=O)c1c(C(F)F)nn(C)c1Cl [Example 173]	
	3.08	Cn1nc(C(F)F)c(C(=O)NCc2ncc(C(F)(F)F)cc2Cl)c1Cl [Example 178]	
	3.85	Cn1nc(C(F)F)c(C(=O)N(Cc2ncc(Cl)cc2Cl)C2CCCC2)c1F [Example 183]	
	3.11	CC(c1ncc(Cl)cc1Cl)N(C)C(=O)c1c(C(F)F)nn(C)c1Cl (stereo not drawn) [Example 186]	
	4.21	Cn1nc(C(F)F)c(C(=O)N(Cc2ncc(C(F)(F)F)cc2Cl)C2CCCC2)c1Cl [Example 189]	
	3.96	Cn1nc(C(F)F)c(C(=O)N(Cc2ncc(C(F)(F)F)cc2Cl)C2CCCC2)c1F [Example 190]	
